Compound in one test: Nc1ncnc2c1ncn2[C@@H]1O[C@H](COP(=O)(O)OP(=O)(O)OP(=O)(O)O)[C@@H](O)[C@H]1O [adenosine triphosphate]
Briefly: pEC50 of ATP-induced change in protein thermal stability (2D-TPP). A digest of the protocol:
(§1)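 Each of three independent experiments used Jurkat crude lysate given five concentrations including vehicle (10 min, room temperature), followed by 3 min at one of 12 temperatures from 42 to 63.9 °C and NP40 with benzonase (60 min, 4 °C). TMT LC-MS/MS quantified soluble protein after ultracentrifugation, expressed as fold changes against vehicle at each temperature with median normalisation. For pEC50, dose-response curves were fitted per replicate over adjacent temperature pairs, and hits were called through permutation-based false discovery rate control.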

Compound in the next test: Nc1nc2c(ncn2[C@@H]2O[C@H](COP(=O)(O)OP(=O)(O)OP(=O)(O)O)[C@@H](O)[C@H]2O)c(=O)[nH]1 [guanosine triphosphate]
Kind of test: pEC50 of GTP-induced change in protein thermal stability (2D-TPP). A digest of the protocol: as §1
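For pEC50 of ATP-induced change in protein thermal stability (2D-TPP) in this document: lysate dosed with Na-ATP at 0 0.005 0.05 0.5 and 2 mM.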

Sequence of UniProt O95373 (O95373 whole entry): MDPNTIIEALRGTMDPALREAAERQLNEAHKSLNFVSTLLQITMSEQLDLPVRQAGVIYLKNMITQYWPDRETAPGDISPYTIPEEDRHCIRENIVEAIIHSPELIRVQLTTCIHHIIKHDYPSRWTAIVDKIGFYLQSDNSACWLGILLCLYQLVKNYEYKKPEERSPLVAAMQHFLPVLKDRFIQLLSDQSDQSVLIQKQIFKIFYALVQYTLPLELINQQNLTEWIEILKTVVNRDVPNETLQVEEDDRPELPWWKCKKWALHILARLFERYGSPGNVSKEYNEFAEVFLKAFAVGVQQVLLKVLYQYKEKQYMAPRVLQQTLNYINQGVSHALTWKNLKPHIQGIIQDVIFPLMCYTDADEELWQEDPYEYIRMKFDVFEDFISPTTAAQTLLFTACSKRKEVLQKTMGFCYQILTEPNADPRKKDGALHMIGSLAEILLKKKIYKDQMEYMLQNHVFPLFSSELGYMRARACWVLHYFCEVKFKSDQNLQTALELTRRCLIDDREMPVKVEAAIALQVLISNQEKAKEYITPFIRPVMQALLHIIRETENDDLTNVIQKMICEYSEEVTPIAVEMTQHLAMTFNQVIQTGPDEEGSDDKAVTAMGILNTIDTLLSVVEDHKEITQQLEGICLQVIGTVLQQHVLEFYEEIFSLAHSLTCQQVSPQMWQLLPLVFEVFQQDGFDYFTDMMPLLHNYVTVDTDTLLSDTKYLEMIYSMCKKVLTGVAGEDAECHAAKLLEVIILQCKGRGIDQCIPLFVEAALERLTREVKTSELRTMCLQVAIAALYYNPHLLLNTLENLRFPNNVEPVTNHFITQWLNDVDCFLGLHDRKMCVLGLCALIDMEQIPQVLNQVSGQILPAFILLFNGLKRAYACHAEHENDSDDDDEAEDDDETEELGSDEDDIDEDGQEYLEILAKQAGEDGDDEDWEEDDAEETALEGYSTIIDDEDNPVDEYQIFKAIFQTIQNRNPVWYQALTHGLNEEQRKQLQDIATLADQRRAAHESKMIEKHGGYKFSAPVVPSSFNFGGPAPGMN
Sequence of UniProt P36776 (P36776 whole entry): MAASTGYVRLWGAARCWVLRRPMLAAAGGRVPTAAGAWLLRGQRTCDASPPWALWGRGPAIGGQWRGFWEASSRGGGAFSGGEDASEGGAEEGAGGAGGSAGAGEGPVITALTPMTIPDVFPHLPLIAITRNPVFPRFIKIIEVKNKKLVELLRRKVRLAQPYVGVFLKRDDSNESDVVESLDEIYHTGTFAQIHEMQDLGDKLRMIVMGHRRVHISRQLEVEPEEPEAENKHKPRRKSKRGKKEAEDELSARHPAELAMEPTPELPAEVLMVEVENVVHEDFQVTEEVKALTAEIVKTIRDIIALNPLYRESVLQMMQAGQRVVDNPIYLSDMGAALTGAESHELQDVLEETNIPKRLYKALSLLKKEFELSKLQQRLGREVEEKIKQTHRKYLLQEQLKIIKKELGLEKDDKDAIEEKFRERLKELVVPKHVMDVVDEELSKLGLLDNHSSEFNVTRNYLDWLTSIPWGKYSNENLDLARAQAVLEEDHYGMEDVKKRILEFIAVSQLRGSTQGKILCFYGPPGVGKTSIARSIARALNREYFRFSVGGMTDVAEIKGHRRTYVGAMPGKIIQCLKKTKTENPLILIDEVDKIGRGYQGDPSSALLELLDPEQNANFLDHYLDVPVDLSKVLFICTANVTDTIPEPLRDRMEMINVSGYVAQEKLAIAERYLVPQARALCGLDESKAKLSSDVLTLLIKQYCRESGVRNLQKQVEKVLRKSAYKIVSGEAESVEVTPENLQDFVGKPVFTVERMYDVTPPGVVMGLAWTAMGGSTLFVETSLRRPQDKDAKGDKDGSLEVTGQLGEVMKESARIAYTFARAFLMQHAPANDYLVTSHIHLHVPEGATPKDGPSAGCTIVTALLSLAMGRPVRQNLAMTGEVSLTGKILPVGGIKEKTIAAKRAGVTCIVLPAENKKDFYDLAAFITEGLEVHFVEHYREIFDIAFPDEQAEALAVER
Sequence of UniProt P49914 (P49914 whole entry): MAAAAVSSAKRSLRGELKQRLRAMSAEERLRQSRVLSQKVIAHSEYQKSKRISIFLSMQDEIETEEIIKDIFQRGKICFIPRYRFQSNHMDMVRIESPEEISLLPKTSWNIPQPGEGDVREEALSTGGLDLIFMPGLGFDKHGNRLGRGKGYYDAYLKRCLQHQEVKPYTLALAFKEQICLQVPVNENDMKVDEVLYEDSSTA
Sequence of UniProt O96013 (O96013 whole entry, looked up): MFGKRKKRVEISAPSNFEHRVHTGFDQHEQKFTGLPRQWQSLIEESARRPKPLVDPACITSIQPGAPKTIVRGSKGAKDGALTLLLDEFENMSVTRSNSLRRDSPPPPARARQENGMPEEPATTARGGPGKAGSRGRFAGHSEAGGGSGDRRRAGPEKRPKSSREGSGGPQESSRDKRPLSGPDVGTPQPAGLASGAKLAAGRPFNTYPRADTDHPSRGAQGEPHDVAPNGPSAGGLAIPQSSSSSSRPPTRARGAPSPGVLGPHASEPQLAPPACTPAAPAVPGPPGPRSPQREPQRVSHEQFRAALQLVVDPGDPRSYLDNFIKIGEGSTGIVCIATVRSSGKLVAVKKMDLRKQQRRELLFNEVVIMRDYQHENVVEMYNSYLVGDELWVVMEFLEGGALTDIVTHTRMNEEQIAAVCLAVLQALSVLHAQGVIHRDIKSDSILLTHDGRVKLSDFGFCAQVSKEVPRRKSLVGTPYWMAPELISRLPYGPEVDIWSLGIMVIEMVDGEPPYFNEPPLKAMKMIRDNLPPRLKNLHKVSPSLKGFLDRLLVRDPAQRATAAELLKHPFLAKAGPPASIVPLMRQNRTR
Sequence of UniProt P33993 (P33993 whole entry): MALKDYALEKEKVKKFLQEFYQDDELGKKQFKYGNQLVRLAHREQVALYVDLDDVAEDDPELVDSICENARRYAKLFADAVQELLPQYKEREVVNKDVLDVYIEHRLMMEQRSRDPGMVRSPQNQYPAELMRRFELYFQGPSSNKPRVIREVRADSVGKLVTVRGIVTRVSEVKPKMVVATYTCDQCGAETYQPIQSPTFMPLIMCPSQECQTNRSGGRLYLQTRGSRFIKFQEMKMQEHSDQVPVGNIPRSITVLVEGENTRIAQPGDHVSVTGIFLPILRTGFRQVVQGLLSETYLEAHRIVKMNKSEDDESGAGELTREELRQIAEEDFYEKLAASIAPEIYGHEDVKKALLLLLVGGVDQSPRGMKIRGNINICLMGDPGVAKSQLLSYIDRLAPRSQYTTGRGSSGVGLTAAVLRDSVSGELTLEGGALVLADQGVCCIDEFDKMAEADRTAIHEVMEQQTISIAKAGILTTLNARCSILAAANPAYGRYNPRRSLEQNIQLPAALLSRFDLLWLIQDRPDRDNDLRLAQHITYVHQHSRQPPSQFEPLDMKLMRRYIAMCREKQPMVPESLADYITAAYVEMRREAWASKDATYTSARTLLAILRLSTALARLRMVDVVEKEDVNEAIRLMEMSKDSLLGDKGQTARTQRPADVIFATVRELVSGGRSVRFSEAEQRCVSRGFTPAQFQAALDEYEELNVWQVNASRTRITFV
Sequence of UniProt Q13418 (Q13418 whole entry): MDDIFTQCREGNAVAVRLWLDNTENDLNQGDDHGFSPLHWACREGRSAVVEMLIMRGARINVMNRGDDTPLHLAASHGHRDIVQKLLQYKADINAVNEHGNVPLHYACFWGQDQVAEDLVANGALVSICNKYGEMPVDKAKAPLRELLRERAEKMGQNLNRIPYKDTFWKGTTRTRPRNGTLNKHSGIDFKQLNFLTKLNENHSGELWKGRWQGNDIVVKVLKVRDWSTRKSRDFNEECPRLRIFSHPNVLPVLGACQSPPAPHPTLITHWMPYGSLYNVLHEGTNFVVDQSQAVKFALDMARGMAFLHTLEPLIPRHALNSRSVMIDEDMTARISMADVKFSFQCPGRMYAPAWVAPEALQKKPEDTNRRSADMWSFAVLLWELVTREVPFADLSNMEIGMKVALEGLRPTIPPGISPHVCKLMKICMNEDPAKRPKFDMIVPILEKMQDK
Sequence of UniProt Q14566 (Q14566 whole entry): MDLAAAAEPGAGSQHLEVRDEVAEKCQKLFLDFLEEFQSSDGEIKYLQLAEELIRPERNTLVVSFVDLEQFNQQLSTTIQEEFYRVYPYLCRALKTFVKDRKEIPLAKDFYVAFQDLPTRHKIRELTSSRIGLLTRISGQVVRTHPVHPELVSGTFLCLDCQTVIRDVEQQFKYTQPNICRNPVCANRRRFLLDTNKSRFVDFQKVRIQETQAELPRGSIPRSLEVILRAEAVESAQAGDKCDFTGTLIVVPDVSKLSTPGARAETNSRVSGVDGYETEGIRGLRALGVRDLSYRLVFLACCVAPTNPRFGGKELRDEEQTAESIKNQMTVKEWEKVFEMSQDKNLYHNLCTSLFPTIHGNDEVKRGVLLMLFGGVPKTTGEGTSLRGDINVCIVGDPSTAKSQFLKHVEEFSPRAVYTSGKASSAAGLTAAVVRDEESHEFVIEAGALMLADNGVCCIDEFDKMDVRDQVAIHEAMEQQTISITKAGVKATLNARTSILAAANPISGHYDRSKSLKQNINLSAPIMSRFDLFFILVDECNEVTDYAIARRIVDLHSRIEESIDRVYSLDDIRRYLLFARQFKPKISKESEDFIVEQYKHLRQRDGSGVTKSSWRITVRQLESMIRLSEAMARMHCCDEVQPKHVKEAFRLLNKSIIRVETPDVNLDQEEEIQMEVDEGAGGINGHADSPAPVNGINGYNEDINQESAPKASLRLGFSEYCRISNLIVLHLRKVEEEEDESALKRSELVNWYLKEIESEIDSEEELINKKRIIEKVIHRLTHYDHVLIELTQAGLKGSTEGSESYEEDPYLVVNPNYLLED
Sequence of UniProt P61244 (P61244 whole entry): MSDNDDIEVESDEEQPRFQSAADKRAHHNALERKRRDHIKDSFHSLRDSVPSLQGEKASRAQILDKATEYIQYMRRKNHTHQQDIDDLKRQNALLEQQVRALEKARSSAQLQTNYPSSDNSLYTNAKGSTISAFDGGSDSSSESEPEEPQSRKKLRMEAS

In the case of “HARS2 (effect direction: stabilized) (UniProt P49590)”, the pEC50 was determined as 4.13 with adenosine triphosphate and 3.55 with guanosine triphosphate.

For the target “HARS (effect direction: stabilized) (UniProt P12081)”, the negative-log EC50 (pEC50) with adenosine triphosphate is 3.97; with guanosine triphosphate, 3.69.

As to “HMGCS1 (effect direction: stabilized) (UniProt Q01581)”, the pEC50 with adenosine triphosphate came out at 3.98; with guanosine triphosphate it was 3.79.

For “HSPA4L (effect direction: stabilized) (UniProt O95757)”, the pEC50 with adenosine triphosphate was 3.54; with guanosine triphosphate, 3.83.

On to “IARS2 (effect direction: stabilized) (UniProt Q9NSE4)”, for which the pEC50 with adenosine triphosphate was determined as 4.18; in the test with guanosine triphosphate, 3.71.

Take “ILK (effect direction: stabilized) (UniProt Q13418)”: the pEC50 in the test with adenosine triphosphate worked out at 3.37; in the test with guanosine triphosphate, 4.17.

“IMPDH2 (effect direction: stabilized) (UniProt P12268)”: the pEC50 with adenosine triphosphate worked out at 3.26; with guanosine triphosphate, 3.62.

As for “IPO7 (effect direction: stabilized) (UniProt O95373)”, the negative-log EC50 (pEC50) with adenosine triphosphate is 3.44; with guanosine triphosphate, 3.57.

Turning to “KIF2A (effect direction: stabilized) (UniProt O00139)”, the pEC50 with adenosine triphosphate was 4.21; in the test with guanosine triphosphate, 4.29.

With “LONP1 (effect direction: stabilized) (UniProt P36776)”, the pEC50 was 4.03 with adenosine triphosphate and 3.91 with guanosine triphosphate.

Take “MAX (effect direction: destabilized) (UniProt P61244)”: the pEC50 in the test with adenosine triphosphate was found to be 4.13; in the test with guanosine triphosphate it was 4.65.

As to “MCM2 (effect direction: stabilized) (UniProt P49736)”, the pEC50 was 3.58 in the test with adenosine triphosphate and 4.06 in the test with guanosine triphosphate.

In the case of “MCM4 (effect direction: stabilized) (UniProt P33991)”, the figures for the pEC50 with adenosine triphosphate and with guanosine triphosphate were 3.88 and 3.86, respectively.

Consider “MCM6 (effect direction: stabilized) (UniProt Q14566)”, for which the pEC50 with adenosine triphosphate was 4.05; in the test with guanosine triphosphate, 3.98.

As for “MCM7 (effect direction: stabilized) (UniProt P33993)”, the pEC50 is 3.42 with adenosine triphosphate and 4.14 in the test with guanosine triphosphate.

As to “MFN2 (effect direction: stabilized) (UniProt O95140)”, the values for the pEC50 in the test with adenosine triphosphate and in the test with guanosine triphosphate were 3.77 and 4.04, respectively.

Turning to “MTHFD1 (effect direction: stabilized) (UniProt P11586)”, the negative logarithm of the EC50 (pEC50) in the test with adenosine triphosphate came to 3.71; with guanosine triphosphate it was 3.95.

“MTHFS (effect direction: stabilized) (UniProt P49914)”: the pEC50 with adenosine triphosphate stood at 3.33; with guanosine triphosphate, 3.75.

“NDUFA10 (effect direction: stabilized) (UniProt O95299)”: the pEC50 stood at 3.91 in the test with adenosine triphosphate and 3.81 in the test with guanosine triphosphate.

As to “NEK7 (effect direction: stabilized) (UniProt Q8TDX7)”, the pEC50 amounted to 4.02 in the test with adenosine triphosphate and 4.11 with guanosine triphosphate.

As for “NME4 (effect direction: stabilized) (UniProt O00746)”, the negative-log EC50 (pEC50) was found to be 4.29 in the test with adenosine triphosphate and 4.44 with guanosine triphosphate.

In the case of “NSUN2 (effect direction: stabilized) (UniProt Q08J23)”, the values for the pEC50 in the test with adenosine triphosphate and with guanosine triphosphate were below 2.7 and 3.87, respectively.

Take “NUBP2 (effect direction: stabilized) (UniProt Q9Y5Y2)”: the pEC50 was found to be 3.41 with adenosine triphosphate and 4.71 with guanosine triphosphate.

Turning to “OLA1 (effect direction: stabilized) (UniProt Q9NTK5)”, the results for the pEC50 in the test with adenosine triphosphate and with guanosine triphosphate were 3.81 and 3.87, respectively.

Consider “OSGEP (effect direction: stabilized) (UniProt Q9NPF4)”, for which the pEC50 came to 3.8 with adenosine triphosphate and 3.88 in the test with guanosine triphosphate.

Regarding “PAK4 (effect direction: stabilized) (UniProt O96013)”, the pEC50 was determined as 4.07 in the test with adenosine triphosphate and 3.44 with guanosine triphosphate.

(Values after the supplement of paper PMC6411743.)
